The source of these data is patent US20260365677A1, “NEW CONTRAST AGENTS FOR USE IN DIAGNOSTIC IMAGING” (Bayer Aktiengesellschaft, priority 2022, published 2026).

Structures are written as SMILES.

For orientation: Solubility means the dissolved amount per volume that the medium holds.

For one data set, the target named is T1, OATP1B1 (Homo sapiens, UniProt Q9Y6L6).
T1 construct: expressed in transfected cells
T1 sequence (Q9Y6L6 1-691): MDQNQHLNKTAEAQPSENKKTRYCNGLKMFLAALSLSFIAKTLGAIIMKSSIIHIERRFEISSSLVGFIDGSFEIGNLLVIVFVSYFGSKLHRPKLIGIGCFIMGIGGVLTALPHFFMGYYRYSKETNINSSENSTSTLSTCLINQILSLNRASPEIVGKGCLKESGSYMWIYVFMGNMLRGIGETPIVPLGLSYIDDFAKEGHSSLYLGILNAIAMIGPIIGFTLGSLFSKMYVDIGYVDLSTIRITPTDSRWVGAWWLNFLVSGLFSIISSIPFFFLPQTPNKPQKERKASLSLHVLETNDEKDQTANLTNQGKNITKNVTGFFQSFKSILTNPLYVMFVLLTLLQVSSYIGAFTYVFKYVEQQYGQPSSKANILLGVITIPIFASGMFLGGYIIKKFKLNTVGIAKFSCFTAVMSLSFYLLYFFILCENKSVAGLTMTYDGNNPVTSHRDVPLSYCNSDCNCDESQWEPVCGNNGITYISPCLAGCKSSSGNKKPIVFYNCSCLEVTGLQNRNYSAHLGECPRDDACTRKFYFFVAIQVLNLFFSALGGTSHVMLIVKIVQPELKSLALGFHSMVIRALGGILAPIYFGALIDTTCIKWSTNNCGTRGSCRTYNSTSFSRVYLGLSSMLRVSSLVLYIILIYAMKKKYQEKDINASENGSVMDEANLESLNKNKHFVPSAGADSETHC
The experiment in a line: Uptake into stable transfected OATP1B1 HEK 293 cells. The following applies: 100 μM, 40 min, relative to RC1 (Gd-EOB-DTPA). The format is cell-based. The procedure:
Human stable transfected OATP1 B1 human embryonic kidney 293 cells (OATP1 B1 HEK 293, SLCO1B1, Entrez Gene ID: 10599) were used (Leonhardt M et al. Drug Metab Dispos. 2010 July; 38(7):1024-8). The following culture medium was used: 500 mL DMEM (Dulbecco's Modified Eagle Medium—high Glucose, D6429), 50 mL FCS (fetal bovine serum, Fa. Sigma, F7524), 5.8 mL G418 (Geneticin, Fa. Gibco 10131-027) and 5 mL Pen-Strep. (Penicillin-Streptomycin, Fa. Gibco, Ref 15140-122). Cryopreserved cells were shortly thawed in water bath and diluted in 10 mL warm culture medium (37 °C). After medium change the cells were grown for 3d in a 25 cm^2 cell culture flask. After 3 to 5d the cells were transferred into 75 cm^2 flasks. For the splitting the cells were incubated with 1.5 mL trypsin (Trypsin-EDTA (1×) 0.05%, Ref 25300-054 100 ml, Fa. Gibco) for 3-5 min in the incubator (37 °C, 5% CO2 and 95% oxygen). After centrifugation and washing with medium the cells were counted (50 μL cell suspension and 50 μL trypan blue (Trypan Blue Solution, 93595-50 ml, Fa. Fluka). Cells were cultured (1×10^5 cells/well) in poly-D-lysine coated 24-well plates (Fa. Corning, Ref: 354414) in 1.5 mL medium per well. After 48 h in the incubator the medium was changed and 1.5 mL/well sodium butyrate containing medium were added (40 mL culture medium plus 400 μL Na-Butyrate, Fa. Sigma Aldrich B5887-5G, 250 mg in 2.27 mL MilliQ water). After 24 h in the incubator the medium was vacuumed off and 1.5 mL transport buffer was added and incubated for 10 min. The transport buffer contains the following ingredients: 500 mL HBSS (Hank's balanced salt solution, Hyclone, SH30268.01), 5 mL HEPES buffer (4-(2-hydroxyethyl)-1-piperazine-ethanesulfonic acid, Gibco 15630-056) and 3.9 mL glucose (Sigma, G8270-100, 90 g/200 mL MilliQ water). All test items were prepared in transport buffer at a final concentration of 100 μM from stock solutions (180 to 500 mM concentration). The OATP1B1 HEK 293 cells were incubated with test solutions (test item in transport buffer 500 μL) for 40 min on a thermoshaker without shaking (PHMP, Fa. Grant Bio). Triplicates were performed for each test item. After incubation the cells were washed with 2 mL of cold PBS (+) buffer (Dulbeccos PBS+, Fa. Gibco). […] As a reference standard Gd-EOB-DTPA (gadoxetate) is used in the same well plate. The OATP1B1 HEK 293 uptake of the test compound is calculated relative to gadoxetate (resulting in the unit % of RC1).

The nature of data set [1]: Relaxivity measurements at 1.41 T in water and human plasma. The format is physicochemical. The conditions noted are these: 37 °C, normalized to Gd. The procedure: Relaxivity measurements at 1.41 T were performed using a MiniSpec mq60 spectrometer (Bruker Analytik, Karlsruhe, Germany) operating at a resonance frequency of 60 MHz and a temperature of 37 °C. The T1 relaxation times were determined using the standard inversion recovery (IR) method with a fixed relaxation delay of at least 5×T1. The variable inversion time (TI) was calculated automatically by the standard software of the MiniSpec mq60 (8 steps). The T2 measurements were performed by using a Carr-Purcell-Meiboom-Gill (CPMG) pulse sequence, applying a relaxation delay of at least 5×T1.
Each relaxivity measurement was performed using three different Gd concentrations (3 concentrations between 0.05 and 2 mM). The T1 and T2 relaxation times of the example compounds 1 to 10 were measured in different media for example in water and human plasma. Human plasma preparation: For each experiment fresh blood was taken from a volunteer using 10 mL citrate-tubes (Sarstedt S-Monovette 02.1067.001, 10 mL, Citrate). The 10 mL citrate-tubes were carefully inverted 10 times to mix blood and anticoagulant and centrifuged for 15 min at 1811 g at RT (Eppendorf, Centrifuge 5810R).
The relaxivities ri (where i=1, 2) were calculated based on the measured relaxation rates R, in water and plasma:
where Ri(0) represent the relaxation rate of the respective solvent and CGd the concentration of the compound normalized to the Gadolinium. The Gadolinium concentrations of the investigated solutions were verified by Inductively Coupled Plasma Mass Spectrometry (ICP-MS Agilent 7500a, Waldbronn, Germany).

The nature of data set [2]: Exploratory water solubility in 10 mM Tris-HCl buffer, pH 7.4. The conditions noted are these: aqueous buffer (10 mM Tris-HCl), 20 °C. The format is physicochemical. The method, then:
The exploratory water solubility of the compounds is determined at room temperature (20 °C) in 0.5 mL buffer solution (10 mM Tris-HCl, pH 7.4) in the microcentrifuge tubes (Eppendorf, 2.0 mL safe-lock caps). The solid compounds were added stepwise to the buffer solution. More substance is added once all the suspended material is dissolved until an equilibrium between undissolved and dissolved substance is reached. The suspension was mixed using a shaker (Heidolph Reax 2000) and treated 5 min in an ultrasound bath (Bandelin, Sonorex Super RK255H). The Gadolinium concentration of the test substance in the clear solution is measured by ICP-MS.

On to `COCCOCCOCCOc1ccc(C[C@@H]2CN(CC(=O)[O-])CCN(CC(=O)[O-])CCN(CC(=O)O)CCN2CC(=O)[O-])cc1.[Gd+3]` [Example 3, Gadolinium-2,2′,2″-[(2R)-10-(carboxymethyl)-2-(4-{2-[2-(2-methoxyethoxy)ethoxy]ethoxy}benzyl)-1,4,7,10-tetraazacyclododecane-1,4,7-triyl]triacetate], for which the “Uptake into OATP1B1-HEK 293 cells” value at OATP1B1 is recorded as 120 % of RC1. In data set [1], this molecule gave a r1 human plasma of 6.8 L/mmol/s and a r1 water of 5.0 L/mmol/s. Moreover, the Solubility in data set [2] was over 166 mM.
The corresponding values for `CCOc1ccc(C[C@H]2CN(CC(=O)[O-])CCN(CC(=O)[O-])CCN(CC(=O)O)CCN2CC(=O)[O-])cc1.[Gd+3]` (single isomer, unassigned; stereoisomer 1) [Example 10] are 212 % of RC1, 6.4 L/mmol/s, 4.8 L/mmol/s and over 23 mM.
In the case of `CCOc1ccc(CC2CN(CC(=O)[O-])CCN(CC(=O)[O-])CCN(CC(=O)O)CCN2CC(=O)[O-])cc1.[Gd+3]` (single isomer, unassigned; diastereomer 1) [Example 8, Gadolinium-2,2′,2″-[10-(carboxymethyl)-2-(4-ethoxybenzyl)-1,4,7,10-tetraazacyclododecane-1,4,7-triyl]triacetate (racemic diastereomer 1)], the “Uptake into OATP1B1-HEK 293 cells” value on OATP1B1 is on record as 208 % of RC1. In data set [1], this molecule had a r1 human plasma of 6.5 L/mmol/s and a r1 water of 4.7 L/mmol/s.
For the molecule `CCCCOc1ccc(C[C@H]2CN(CC(=O)[O-])CCN(CC(=O)[O-])CCN(CC(=O)O)CCN2CC(=O)[O-])cc1.[Gd+3]` (single isomer, unassigned; stereoisomer 1) [Example 12], the “Uptake into OATP1B1-HEK 293 cells” value at OATP1B1 is 119 % of RC1. In data set [1], this molecule gave a r1 human plasma of 8.8 L/mmol/s and a r1 water of 4.7 L/mmol/s. The same molecule yielded a Solubility in data set [2] of 211 mM.
Turning to `CCCCOc1ccc(C[C@H]2CN(CC(=O)[O-])CCN(CC(=O)[O-])CCN(CC(=O)O)CCN2CC(=O)[O-])cc1.[Gd+3]` (single isomer, unassigned; stereoisomer 2) [Example 13], the “Uptake into OATP1B1-HEK 293 cells” value at OATP1B1 was 847 % of RC1. In data set [1], this molecule displayed a r1 human plasma of 9.8 L/mmol/s and a r1 water of 5.3 L/mmol/s. Also, in data set [2], the Solubility was over 43 mM.
Regarding `COCCOCCOCCOc1ccc(C[C@H]2CN(CC(=O)[O-])CCN(CC(=O)[O-])CCN(CC(=O)O)CCN2CC(=O)[O-])cc1.[Gd+3]` [Example 1, Gadolinium-2,2′,2″-[(2S)-10-(carboxymethyl)-2-(4-{2-[2-(2-methoxyethoxy)-ethoxy]ethoxy}benzyl)-1,4,7,10-tetraazacyclododecane-1,4,7-triyl]triacetate], the “Uptake into OATP1B1-HEK 293 cells” value at OATP1B1 was 143 % of RC1. In data set [1], this molecule returned a r1 human plasma of 6.6 L/mmol/s and a r1 water of 5.1 L/mmol/s. The Solubility in data set [2] was over 201 mM.
Consider `CCOCCOCCOc1ccc(C[C@H]2CN(CC(=O)[O-])CCN(CC(=O)[O-])CCN(CC(=O)O)CCN2CC(=O)[O-])nc1.[Gd+3]` [Example 6, Gadolinium 2,2′,2″-[(2S)-10-(carboxymethyl)-2-({5-[2-(2-ethoxyethoxy)ethoxy]pyridin-2-yl}methyl)-1,4,7,10-tetraazacyclododecane-1,4,7-triyl]triacetate], for which the “Uptake into OATP1B1-HEK 293 cells” value at OATP1B1 is on record as 174 % of RC1. In data set [1], this molecule registered a r1 human plasma of 5.9 L/mmol/s and a r1 water of 5.3 L/mmol/s.
Take `CCOc1ccc(CC2CN(CC(=O)[O-])CCN(CC(=O)[O-])CCN(CC(=O)O)CCN2CC(=O)[O-])cc1.[Gd+3]` (single isomer, unassigned; diastereomer 2) [Example 9, Gadolinium-2,2′,2″-[10-(carboxymethyl)-2-(4-ethoxybenzyl)-1,4,7,10-tetraazacyclododecane-1,4,7-triyl]triacetate (racemic diastereomer 2)]: the “Uptake into OATP1B1-HEK 293 cells” value at OATP1B1 was 60 % of RC1. In data set [1], this molecule displayed a r1 human plasma of 5.6 L/mmol/s and a r1 water of 4.3 L/mmol/s. Moreover, in data set [2], the Solubility was over 145 mM.
`CCOCCOCCOc1ccc(C[C@H]2CN(CC(=O)[O-])CCN(CC(=O)[O-])CCN(CC(=O)O)CCN2CC(=O)[O-])cc1.[Gd+3]` [Example 2, Gadolinium-2,2′,2″-[(2S)-10-(carboxymethyl)-2-{4-[2-(2-ethoxyethoxy)ethoxy]benzyl}-1,4,7,10-tetraazacyclododecane-1,4,7-triyl]triacetate]: the “Uptake into OATP1B1-HEK 293 cells” value at OATP1B1 is reported as 282 % of RC1. In data set [1], this molecule returned a r1 human plasma of 5.9 L/mmol/s and a r1 water of 4.9 L/mmol/s. Further, the Solubility in data set [2] was over 55 mM.
The corresponding values for `CCOCCOCCOCCOc1ccc(C[C@H]2CN(CC(=O)[O-])CCN(CC(=O)[O-])CCN(CC(=O)O)CCN2CC(=O)[O-])cc1.[Gd+3]` [Example 5, Gadolinium-2,2′,2″-[(2S)-10-(carboxymethyl)-2-(4-{2-[2-(2-ethoxyethoxy)ethoxy]ethoxy}benzyl)-1,4,7,10-tetraazacyclododecane-1,4,7-triyl]triacetate] are 78 % of RC1, 5.7 L/mmol/s, 5.1 L/mmol/s and over 284 mM.
